According to article PMC9029893 (International Journal of Molecular Sciences, 2022):

What was measured:
[1] = system: coagulation in human citrate plasma; test: Coagulation assay (endogenous thrombin generation); assay type: biochemical
Method: These reagents induce a feedback reaction leading to the generation of endogenous thrombin, and coagulation. The other experimental conditions were the same as for the CL-test (Section 4.12).
The obtained curves were analyzed using dedicated software that estimates the following parameters: TGt—thrombin generation time (s), Fmax—maximum clotting (%T), Tf—plasma clotting time (s), Fvo—initial plasma clotting velocity (%T/min), Sf—area under the clot formation curve (%Txmin), Tc—clot stabilization time (s), S—area under the curve of coagulation (%Txmin).

[2] = molecular target: antithrombin III (AT) (Homo sapiens, UniProt P01008); test: Activity of antithrombin III (AT); assay type: biochemical
Method: The activity of AT in human plasma was estimated spectrophotometrically using a diagnostic laboratory method. […] In the control samples, 10 μL of distilled water and methanol (1:1) was used. The reaction was initiated by the addition of a chromogenic substrate dissolved in water for injection; as a result, p-nitroaniline was released proportionally to the level of AT. The evaluation of AT level was performed on the basis of a calibration curve performed on calibrator diluted in the range 1:30–1:120 (λ = 405 nm) by the coagulometer program (CoagChrom-3003 Bio Ksel, Grudziadz, Poland). The coefficient of variability for the method (CV) was 2.69%, and the reference range was 80%–130%.

[3] = system: HUVEC cells; test: HUVEC migration, wound-healing assay (JuLI Stage); assay type: cell-based, human
Method: The effects of compounds 1–5 on HUVEC migration were determined using the JuLI™ Stage system (NanoEntek, Seoul, Korea): a real-time cell history recorder allowing for live cell imaging and analysis. The procedure for the migration experiments has been published elsewhere in more detail. Concisely, HUVECs were seeded at a density of 10,000 cells per well on 96-well plates and incubated at standard conditions for 24 h. Following this, a wound was made with a scratcher (NanoEntek, Seoul, Korea). The cells were then rinsed with 100 μL of fresh EGM2 medium, and treated with biguanides 1–5 at the concentrations of 0.3 and 1.0 mM. The cells were incubated and monitored continuously every 10 min for 36 h at 37 °C, 5% CO2. Analysis of obtained images of cell migration, and measurements of the width of the scratch area were performed using dedicated software (NanoEntek, Seoul, Korea). The results were presented as mean ± SD, n = 4–8. The CV for the method was estimated as 14.2–24.4%, depending on the time point (n = 8).

[4] = system: HUVEC cells; test: Glucose utilization assay (2-NBDG uptake); assay type: cell-based, human; conditions: 24 h, then insulin and 2-NBDG
Method: HUVEC were seeded at a density of 20,000 cells per well in 48-well plates, and were cultured in standard conditions for 24 h (medium EGM-2; volume 0.2 mL). Following this, compounds 1–8 were added at concentrations of 0.1 and 0.3 mM, and the HUVECs were incubated for another 24 h. Cells treated with ᴅ-glucose (final concentration in a sample 0.1 mM) were used as positive controls. On the following day, the cells were rinsed with PBS (Biomed Lublin, Lublin, Poland) and cultured for two hours in glucose-free DMEM medium supplemented with 1% BSA (bovine serum albumin, Sigma, St. Louis, MO, USA). Then, the cells were co-treated with insulin (final concentration 0.0001 mM) for 30 min. Afterwards, the medium was discarded and the cells were treated with 2-NBDG (final concentration 0.05 mM) for 30 min, followed by removal of the solutions of each well. The cells were washed twice with 100 µL PBS, and lysed using 1% Triton X-100 solution in PBS. The fluorescence was recorded using a microplate reader (Biotek, Instruments, Winooski, VT, USA) at 480/530 nm.
The concentration of intracellular 2-NBDG was calculated using a calibration curve obtained using 2-NBDG at concentrations ranging from 0.0001 to 0.025 mM in lysis buffer. The results are presented as mean ± SD, n = 4–6. The coefficient of variation for the assay was calculated (CV = 2.2%, n = 8).

[5] = molecular target: T1, factor X (Homo sapiens, UniProt P00742); test: Factor X activity; assay type: biochemical
T1 construct: 50 µL of four-fold diluted PPP, 50 μL of deficient plasma factor X, 10 μL of the examined compound; from tissue; host or cells: platelet-poor plasma (PPP), mixed with factor X-depleted plasma (Bio-Ksel)
Method: The activity of FX was measured optically using deficient plasma factor X [75]. The content of each sample was as follows: 50 µL of four-fold diluted PPP, 50 μL of deficient plasma factor X, 10 μL of the examined compound, and 100 µL PT reagent. The control samples contained 10 μL of distilled water and methanol (1:1). The measurement of PT time was recorded using a CoagChrom-3003 coagulometer (Bio-Ksel, Grudziadz, Poland). The activity of factor X was counted using a calibration curve (R^2 = 0.999) performed on a calibrator diluted in the range 1:5–1:80 [76]. The variation in plasma coagulation time is proportional to the concentration and activity of factor X in the patient plasma treated with the tested compounds. The coefficient of variability for the method was calculated as CV = 1.80%. The reference values for factor X activity ranged from 77–131%.

T1 sequence (P00742 41-488): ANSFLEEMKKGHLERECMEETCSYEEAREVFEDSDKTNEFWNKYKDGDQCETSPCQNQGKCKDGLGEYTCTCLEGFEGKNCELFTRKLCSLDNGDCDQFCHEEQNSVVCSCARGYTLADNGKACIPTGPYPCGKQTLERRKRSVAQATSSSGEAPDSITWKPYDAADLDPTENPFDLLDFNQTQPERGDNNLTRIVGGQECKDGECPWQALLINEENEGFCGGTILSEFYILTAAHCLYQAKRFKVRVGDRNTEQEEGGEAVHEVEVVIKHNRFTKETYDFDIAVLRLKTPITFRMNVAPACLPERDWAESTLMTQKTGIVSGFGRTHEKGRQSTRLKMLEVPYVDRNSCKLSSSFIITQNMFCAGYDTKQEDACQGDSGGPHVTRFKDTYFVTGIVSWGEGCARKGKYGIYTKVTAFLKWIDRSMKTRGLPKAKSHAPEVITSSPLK
Sequence of antithrombin III (AT) (P01008 33-464): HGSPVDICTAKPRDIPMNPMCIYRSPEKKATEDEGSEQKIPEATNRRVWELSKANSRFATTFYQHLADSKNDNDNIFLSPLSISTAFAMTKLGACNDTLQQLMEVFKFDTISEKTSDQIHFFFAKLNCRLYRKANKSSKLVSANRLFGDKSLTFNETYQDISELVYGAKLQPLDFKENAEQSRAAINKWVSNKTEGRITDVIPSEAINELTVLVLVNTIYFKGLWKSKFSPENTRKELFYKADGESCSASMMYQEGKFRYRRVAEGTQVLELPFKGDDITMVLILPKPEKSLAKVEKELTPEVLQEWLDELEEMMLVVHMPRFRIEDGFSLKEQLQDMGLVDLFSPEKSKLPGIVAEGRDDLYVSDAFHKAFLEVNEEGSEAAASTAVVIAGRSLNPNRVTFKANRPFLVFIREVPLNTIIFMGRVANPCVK

activity of AT III ([2]; 0.06 mM): 113.00 ± 10.13%
activity of AT III ([2]; 0.3 mM): 117.25 ± 5.50%
activity of AT III ([2]; 0.6 mM): 131.75 ± 6.65%
activity of AT III ([2]; 1.5 mM): 136.75 ± 11.32%
Factor X activity ([5]; 0.3 mM): 105.60 ± 2.30%
Factor X activity ([5]; 0.6 mM): 103.40 ± 7.23%
Factor X activity ([5]; 1.5 mM): 104.20 ± 8.14%
Compound: CN(C)C(=N)N=C(N)NS(=O)(=O)C1CCCCC1 [Compound 3]
Fmax—maximum clotting ([1]; 0.06 mM): 84.78 ± 5.57 %T
Fvo—initial plasma clotting velocity ([1]; 0.06 mM): 108.56 ± 28.63 %T/min
Sc—area under the curve of a stable clot formation ([1]; 0.06 mM): 586.27 ± 95.97 %T x min
Sf—area under the clot formation curve ([1]; 0.06 mM): 102.35 ± 29.66 %T x min
S—overall potential of clot formation ([1]; 0.06 mM): 1628.36 ± 118.58 %T x min
TGt—thrombin generation time ([1]; 0.06 mM): 155.00 ± 20.58 s
Tf—plasma clotting time ([1]; 0.06 mM): 108.30 ± 35.15 s
Fmax—maximum clotting ([1]; 0.3 mM): 82.66 ± 7.51 %T
Fvo—initial plasma clotting velocity ([1]; 0.3 mM): 113.42 ± 23.98 %T/min
Sc—area under the curve of a stable clot formation ([1]; 0.3 mM): 766.41 ± 394.94 %T x min
Sf—area under the clot formation curve ([1]; 0.3 mM): 100.51 ± 28.00 %T x min
S—overall potential of clot formation ([1]; 0.3 mM): 1580.91 ± 150.03 %T x min
TGt—thrombin generation time ([1]; 0.3 mM): 139.60 ± 7.44 s
Tf—plasma clotting time ([1]; 0.3 mM): 108.58 ± 33.64 s
Fmax—maximum clotting ([1]; 0.6 mM): 82.44 ± 5.61 %T
Fvo—initial plasma clotting velocity ([1]; 0.6 mM): 127.78 ± 40.82 %T/min
Sc—area under the curve of a stable clot formation ([1]; 0.6 mM): 560.45 ± 102.47 %T x min
Sf—area under the clot formation curve ([1]; 0.6 mM): 107.67 ± 29.19 %T x min
S—overall potential of clot formation ([1]; 0.6 mM): 1580.02 ± 119.57 %T x min
TGt—thrombin generation time ([1]; 0.6 mM): 158.40 ± 13.03 s
Tf—plasma clotting time ([1]; 0.6 mM): 112.94 ± 35.34 s
Fmax—maximum clotting ([1]; 1.5 mM): 77.50 ± 8.20 %T
Fvo—initial plasma clotting velocity ([1]; 1.5 mM): 135.98 ± 31.06 %T/min
Sc—area under the curve of a stable clot formation ([1]; 1.5 mM): 537.91 ± 99.63 %T x min
Sf—area under the clot formation curve ([1]; 1.5 mM): 83.28 ± 17.34 %T x min
S—overall potential of clot formation ([1]; 1.5 mM): 1494.31 ± 163.29 %T x min
TGt—thrombin generation time ([1]; 1.5 mM): 165.40 ± 28.25 s
Tf—plasma clotting time ([1]; 1.5 mM): 93.42 ± 26.49 s
wound width ([3]; 0.3 mM, 6 hours): 606.7 ± 149.4 µm
wound width ([3]; 0.3 mM, 12 hours): 486.0 ± 131.2 µm
wound width ([3]; 0.3 mM, 18 hours): 441.9 ± 99.5 µm
wound width ([3]; 0.3 mM, 24 hours): 395.9 ± 104.7 µm
wound width ([3]; 0.3 mM, Start): 675.1 ± 94.6 µm
wound width ([3]; 1.0 mM, 6 hours): 494.6 ± 106.9 µm
wound width ([3]; 1.0 mM, 12 hours): 414.1 ± 103.5 µm
wound width ([3]; 1.0 mM, 18 hours): 385.2 ± 94.5 µm
wound width ([3]; 1.0 mM, 24 hours): 331.3 ± 62.5 µm
wound width ([3]; 1.0 mM, Start): 609.3 ± 73.0 µm
Glucose uptake (intracellular 2-NBDG) ([4]; 0.1 mM): 0.0137 ± 0.0003 mM
Glucose uptake (intracellular 2-NBDG) ([4]; 0.3 mM): 0.0144 ± 0.0005 mM
